# Results published in US20160009693A1, “HERBICIDAL COMPOUNDS” (SYNGENTA LIMITED, priority 2013, published 2016).
# Experiments:
# Assay type in all cases: in vivo
# Details in all cases: evaluated after 13 days
# Setaria faberi (SETFA) [1] = test: Herbicidal glasshouse test, pre-emergence, SETFA
# Setaria faberi (SETFA) [2] = test: Herbicidal glasshouse test, post-emergence, SETFA
# Procedure, shortened: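 Setaria faberi seeds were sown in standard soil in pots and grown for 8 days in a glasshouse at 24/16° C. day/night, 14 hours light and 65% humidity. The seedlings were then sprayed post-emergence with the active ingredient in acetone/water (50:50) containing 0.5% Tween 20. Afterwards they were kept under the same conditions, watered twice daily, and scored for percentage damage on a five point scale.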
# Solanum nigrum (SOLNI) [3] = test: Herbicidal glasshouse test, post-emergence, SOLNI
# [4] = tested on: Alopecurus myosuroides (ALOMY); test: Herbicidal glasshouse test, pre-emergence, ALOMY
# [5] = tested on: Ipomoea hederacea (IPOHE); test: Herbicidal glasshouse test, pre-emergence, IPOHE
# [6] = tested on: Ipomoea hederacea (IPOHE); test: Herbicidal glasshouse test, post-emergence, IPOHE
# [7] = tested on: Echinochloa crus-galli (ECHCG); test: Herbicidal glasshouse test, post-emergence, ECHCG
# Procedure, shortened: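 Echinochloa crus-galli (ECHCG) seeds were sown in standard soil in pots and grown for 8 days in a glasshouse at 24/16° C. day/night, 14 hours light and 65% humidity. The young plants were then sprayed post-emergence with the active ingredient in acetone / water (50:50) containing 0.5% Tween 20. Damage was scored after 13 days.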
# [8] = tested on: Alopecurus myosuroides (ALOMY); test: Herbicidal glasshouse test, post-emergence, ALOMY
# [9] = tested on: Amaranthus retoflexus (AMARE); test: Herbicidal glasshouse test, pre-emergence, AMARE
# Procedure, shortened: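 Amaranthus retoflexus seeds were sown in pots of standard soil and kept one day in a glasshouse at 24/16° C. (day/night), 14 hours light and 65% humidity. They were then sprayed pre-emergence with the active ingredient in acetone/water (50:50) containing 0.5% Tween 20. Plants grew under the same conditions, watered twice daily, and percentage damage was scored after 13 days.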
# [10] = tested on: Amaranthus retoflexus (AMARE); test: Herbicidal glasshouse test, post-emergence, AMARE
# Procedure, shortened: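 Amaranthus retoflexus (AMARE) seeds were sown in pots of standard soil and grown in a glasshouse at 24/16° C. day/night, 14 hours light and 65% humidity for 8 days. The plants were then sprayed post-emergence with an aqueous solution of the active ingredient in acetone/water (50:50) with 0.5% Tween 20. Damage was scored after 13 days.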
# Solanum nigrum (SOLNI) [11] = test: Herbicidal glasshouse test, pre-emergence, SOLNI
# Procedure, shortened: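 Seeds of Solanum nigrum were sown in pots of standard soil and kept one day in a glasshouse at 24/16° C. day/night, 14 hours light and 65% humidity. For the pre-emergence treatment they were then sprayed with an aqueous solution of the active ingredient formulated in acetone/water (50:50) containing 0.5% Tween 20. Plant damage was rated after 13 days.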
# [12] = tested on: Echinochloa crus-galli (ECHCG); test: Herbicidal glasshouse test, pre-emergence, ECHCG
# Procedure, shortened: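 Echinochloa crus-galli seeds were sown in standard soil in pots and grown for one day in a glasshouse at 24/16° C. day/night, 14 hours light and 65% humidity. Pre-emergence spraying used an aqueous solution of the active ingredient in acetone/water (50:50) with 0.5% Tween 20. Damage was scored after 13 days on a five point scale.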
Structure (SMILES),"PRE Application SETFA, percentage damage (five point scale) (Setaria faberi (SETFA) [1]; applied at 1000 g/h)","POST Application SETFA, percentage damage (five point scale) (Setaria faberi (SETFA) [2]; applied at 1000 g/h)","POST Application SOLNI, percentage damage (five point scale) (Solanum nigrum (SOLNI) [3]; applied at 1000 g/h)","PRE Application ALOMY, percentage damage (five point scale) ([4]; applied at 1000 g/h)","PRE Application IPOHE, percentage damage (five point scale) ([5]; applied at 1000 g/h)","POST Application IPOHE, percentage damage (five point scale) ([6]; applied at 1000 g/h)","POST Application ECHCG, percentage damage (five point scale) ([7]; applied at 1000 g/h)","POST Application ALOMY, percentage damage (five point scale) ([8]; applied at 1000 g/h)","PRE Application AMARE, percentage damage (five point scale) ([9]; applied at 1000 g/h)","POST Application AMARE, percentage damage (five point scale) ([10]; applied at 1000 g/h)","PRE Application SOLNI, percentage damage (five point scale) (Solanum nigrum (SOLNI) [11]; applied at 1000 g/h)","PRE Application ECHCG, percentage damage (five point scale) ([12]; applied at 1000 g/h)",further results
CC(C)Cn1c(=O)c(C(=O)Nc2nnnn2C)nn(C)c1=O [Compound 1.005],5 (5=80-100%),5 (5=80-100%),5 (5=80-100%),5 (5=80-100%),4 (4=60-79%),5 (5=80-100%),5 (5=80-100%),5 (5=80-100%),5 (5=80-100%),5 (5=80-100%),5 (5=80-100%),5 (5=80-100%),–
Cn1nnnc1NC(=O)c1nn(C)c(=O)n(Cc2ccccc2Cl)c1=O [Compound 1.059],2 (2=20-39%),4 (4=60-79%),5 (5=80-100%),5 (5=80-100%),5 (5=80-100%),5 (5=80-100%),4 (4=60-79%),5 (5=80-100%),5 (5=80-100%),5 (5=80-100%),5 (5=80-100%),5 (5=80-100%),–
Cc1ccc(-n2c(=O)c(C(=O)Nc3nnnn3C)nn(C)c2=O)cc1C [Compound 1.026],5 (5=80-100%),5 (5=80-100%),5 (5=80-100%),5 (5=80-100%),5 (5=80-100%),5 (5=80-100%),5 (5=80-100%),5 (5=80-100%),5 (5=80-100%),5 (5=80-100%),5 (5=80-100%),5 (5=80-100%),–
C=CCn1c(=O)c(C(=O)Nc2nnnn2C)nn(C)c1=O [Compound 1.004],2 (2=20-39%),4 (4=60-79%),5 (5=80-100%),3 (3=40-59%),4 (4=60-79%),5 (5=80-100%),4 (4=60-79%),4 (4=60-79%),5 (5=80-100%),5 (5=80-100%),5 (5=80-100%),4 (4=60-79%),–
Cn1nnnc1NC(=O)c1nn(C)c(=O)n(-c2ccc(F)cc2Cl)c1=O [Compound 1.021],5 (5=80-100%),5 (5=80-100%),5 (5=80-100%),5 (5=80-100%),5 (5=80-100%),5 (5=80-100%),5 (5=80-100%),5 (5=80-100%),5 (5=80-100%),5 (5=80-100%),5 (5=80-100%),5 (5=80-100%),–
Cn1nnnc1NC(=O)c1nn(C)c(=O)n(Cc2c(F)cccc2F)c1=O [Compound 1.065],5 (5=80-100%),5 (5=80-100%),5 (5=80-100%),5 (5=80-100%),5 (5=80-100%),5 (5=80-100%),5 (5=80-100%),5 (5=80-100%),5 (5=80-100%),5 (5=80-100%),5 (5=80-100%),5 (5=80-100%),–
Cn1ncnc1NC(=O)c1cn(C)c(=O)n(-c2ccccc2)c1=O [Compound 2.003],3 (3=40-59%),1 (1=0-19%),2 (2=20-39%),1 (1=0-19%),5 (5=80-100%),2 (2=20-39%),1 (1=0-19%),1 (1=0-19%),2 (2=20-39%),1 (1=0-19%),4 (4=60-79%),1 (1=0-19%),–
Cn1nnnc1NC(=O)c1nn(C)c(=O)n(-c2cc(C(F)(F)F)cc(C(F)(F)F)c2)c1=O [Compound 1.032],5 (5=80-100%),4 (4=60-79%),5 (5=80-100%),5 (5=80-100%),4 (4=60-79%),5 (5=80-100%),5 (5=80-100%),5 (5=80-100%),5 (5=80-100%),5 (5=80-100%),5 (5=80-100%),5 (5=80-100%),–
C=C(C)Cn1c(=O)c(C(=O)Nc2nnnn2C)nn(C)c1=O [Compound 1.091],–,–,–,–,–,–,–,–,–,–,–,–,"PRE Application SETFA, percentage damage (five point scale) (Setaria faberi (SETFA) [1]; applied at 250 g/ha): 4 (4=60-79%); POST Application SETFA, percentage damage (five point scale) (Setaria faberi (SETFA) [2]; applied at 250 g/ha): 4 (4=60-79%); POST Application SOLNI, percentage damage (five point scale) (Solanum nigrum (SOLNI) [3]; applied at 250 g/ha): 5 (5=80-100%); PRE Application ALOMY, percentage damage (five point scale) ([4]; applied at 250 g/ha): 4 (4=60-79%); PRE Application IPOHE, percentage damage (five point scale) ([5]; applied at 250 g/ha): 4 (4=60-79%); POST Application IPOHE, percentage damage (five point scale) ([6]; applied at 250 g/ha): 5 (5=80-100%); POST Application ECHCG, percentage damage (five point scale) ([7]; applied at 250 g/ha): 5 (5=80-100%); POST Application ALOMY, percentage damage (five point scale) ([8]; applied at 250 g/ha): 4 (4=60-79%); PRE Application AMARE, percentage damage (five point scale) ([9]; applied at 250 g/ha): 5 (5=80-100%); POST Application AMARE, percentage damage (five point scale) ([10]; applied at 250 g/ha): 5 (5=80-100%); PRE Application SOLNI, percentage damage (five point scale) (Solanum nigrum (SOLNI) [11]; applied at 250 g/ha): 5 (5=80-100%); PRE Application ECHCG, percentage damage (five point scale) ([12]; applied at 250 g/ha): 5 (5=80-100%)"
Cn1nnnc1NC(=O)c1nn(C)c(=O)n(Cc2ccccc2)c1=O [Compound 1.022],3 (3=40-59%),4 (4=60-79%),5 (5=80-100%),5 (5=80-100%),4 (4=60-79%),5 (5=80-100%),5 (5=80-100%),4 (4=60-79%),5 (5=80-100%),5 (5=80-100%),5 (5=80-100%),5 (5=80-100%),–
